This passage reports IC50 results from US20240208934A1, “ULK1/2 INHIBITORS AND THEIR USE THEREOF” (LifeArc, priority 2021, published 2024).

pIC50: −log10 of the molar value.

This experiment relates to ULK. Briefly: ULK radiometric assay (33P incorporation onto MBP substrate, glass fiber capture filter). Particulars: ULK Biochemical activity; 20 uM ATP, 0.2 mg/mL MBP; averages of at least two independent experiments. On the procedure: ULK activity was measured using a radiometric assay, to measure the incorporation of radiolabelled ^33P onto MBP substrate using a glass fiber capture filter method. Reaction conditions were 0.2 mg/mL MBP, 20 uM ATP (0.25 μCi/well), 50 mM Tris HCl, pH7.5, 10 mM MgCl2, 0.1% beta-mercaptoethanol, 0.1 mM EGTA, 0.01% BSA. Ten point Half log Compound dilution series were prepared in 100% DMSO and added to the reaction to give final assay concentration of 10% DMSO. Compounds were tested in duplicate and values normalized to 10% DMSO only controls. The data were fitted to a four parameter fit equation and the IC50 values shown are averages of at least two independent experiments.
`Cn1cc(Nc2ncc(C(F)(F)F)c(NCCCN3CCCCC3=O)n2)c(OCC(F)(F)F)n1` [Example 48, 1-[3-[[2-[[1-Methyl-3-(2,2,2-trifluoroethoxy)pyrazol-4-yl]amino]-5-(trifluoromethyl)pyrimidin-4-yl]amino]propyl]piperidin-2-one] showed a pIC50 of 6.00 to 6.70. Molecule `FC(F)(F)c1cnc(Nc2ccc(N3CCOCC3)cc2)nc1NCC1CCNC1` (stereo not shown) [Example 87, N2-(4-morpholinophenyl)-N4-(pyrrolidin-3-ylmethyl)-5-(trifluoromethyl)pyrimidine-2,4-diamine] showed a negative-log IC50 (pIC50) of 6.00 to 6.70. Take `COc1ccc(CO)cc1Nc1ncc(C(F)(F)F)c(NCCCN2CCCCC2=O)n1` [Example 47, 1-[3-[[2-[5-(Hydroxymethyl)-2-methoxy-anilino]-5-(trifluoromethyl)pyrimidin-4-yl]amino]propyl]piperidin-2-one]: the negative-log IC50 (pIC50) is at most 6.00. The figure for `COc1cc2c(cc1Nc1ncc(C(F)(F)F)c(NCCCNC(=O)C3CCC3)n1)CNCC2` [Example 82, N-[3-[[2-[(6-methoxy-1,2,3,4-tetrahydroisoquinolin-7-yl)amino]-5-(trifluoromethyl)pyrimidin-4-yl]amino]propyl]cyclobutanecarboxamide] is above 6.70; for `Cc1cc2c(cc1Nc1ncc(C(F)(F)F)c(NCCCN3CCCCC3=O)n1)CNCC2` [Example 23, 6-methyl-7-[[4-[3-(2-oxo-1-piperidyl)propylamino]-5-(trifluoromethyl)pyrimidin-2-yl]amino]-3,4-dihydro-1H-isoquinoline] it is above 6.70; for `O=C1CCCCN1CCCNc1nc(Nc2ccc3c(c2)CCNC3)ncc1C(F)(F)F` [Example 19, 1-[3-[[2-(1,2,3,4-Tetrahydroisoquinolin-6-ylamino)-5-(trifluoromethyl)pyrimidin-4-yl]amino]propyl]piperidin-2-one] it is above 6.70.

Take `O=C1CCCCN1CCCNc1nc(Nc2ccc3c(c2)CNCC3)ncc1C(F)(F)F` [Example 83, 1-[3-[[2-(1,2,3,4-Tetrahydroisoquinolin-7-ylamino)-5-(trifluoromethyl)pyrimidin-4-yl]amino]propyl]piperidin-2-one]: the negative-log IC50 (pIC50) is above 6.70. The figure for `O=C1CCCCN1CCCNc1nc(Nc2cc(CN3CCOCC3)ccc2Cl)ncc1C(F)(F)F` [Example 55, 1-[3-[[2-[2-Chloro-5-(morpholinomethyl)anilino]-5-(trifluoromethyl)pyrimidin-4-yl]amino]propyl]piperidin-2-one] is 6.00 to 6.70. The result for `COc1ccc(CN2CCOCC2)cc1Nc1ncc(C(F)(F)F)c(NCCCN2CCCCC2=O)n1` [Example 61, 1-[3-[[2-[2-Methoxy-5-(morpholinomethyl)anilino]-5-(trifluoromethyl)pyrimidin-4-yl]amino]propyl]piperidin-2-one] reads at most 6.00; that for `CN1CCc2ccc(Nc3ncc(C4CC4)c(NC4CC4)n3)cc2C1` [Example 18, N4,5-dicyclopropyl-N2-(2-methyl-1,2,3,4-tetrahydroisoquinolin-7-yl)pyrimidine-2,4-diamine], above 6.70. The result for `CN1CCc2cc(Nc3ncc(C4CC4)c(NCCCN4CCCC4=O)n3)ccc2C1` [Example 9, 1-[3-[[5-cyclopropyl-2-[(2-methyl-3,4-dihydro-1H-isoquinolin-6-yl)amino]pyrimidin-4-yl]amino]propyl]pyrrolidin-2-one] reads above 6.70; that for `COc1cc(COC(C)C)ccc1Nc1ncc(C(F)(F)F)c(NCCCN2CCCCC2=O)n1` [Example 35, 1-[3-[[2-[4-(Isopropoxymethyl)-2-methoxy-anilino]-5-(trifluoromethyl)pyrimidin-4-yl]amino]propyl]piperidin-2-one], at most 6.00; that for `FC(F)(F)c1cnc(Nc2ccc(N3CCOCC3)cc2)nc1NCc1cn[nH]c1` [Example 92, N2-(4-morpholinophenyl)-N4-(1H-pyrazol-4-ylmethyl)-5-(trifluoromethyl)pyrimidine-2,4-diamine], at most 6.00.

With `O=C1CCCCN1CCCNc1nc(Nc2cc(S(=O)(=O)N3CCNCC3)cc3c2OCC3)ncc1C(F)(F)F` [Example 52, 1-[3-[[2-[(5-Piperazin-1-ylsulfonyl-2,3-dihydrobenzofuran-7-yl)amino]-5-(trifluoromethyl)pyrimidin-4-yl]amino]propyl]piperidin-2-one], the pIC50 was 6.00 to 6.70. In the case of `O=C1CCCCN1CCCNc1nc(Nc2cc(OC3CCNCC3)ccc2Cl)ncc1C(F)(F)F` [Example 44, 1-[3-[[2-[2-Chloro-5-(4-piperidyloxy)anilino]-5-(trifluoromethyl)pyrimidin-4-yl]amino]propyl]piperidin-2-one], the pIC50 is 6.00 to 6.70.

As for `O=C1CCCCN1CCCNc1nc(Nc2cc(O)ccc2Cl)ncc1C(F)(F)F` [Example 57, 1-[3-[[2-(2-Chloro-5-hydroxy-anilino)-5-(trifluoromethyl)pyrimidin-4-yl]amino]propyl]piperidin-2-one], the pIC50 is 6.00 to 6.70. `O=C1CCCCN1CCCNc1nc(Nc2cc3c(cc2Cl)CCNC3)ncc1C(F)(F)F` [Example 43, 1-[3-[[2-[(6-Chloro-1,2,3,4-tetrahydroisoquinolin-7-yl)amino]-5-(trifluoromethyl)pyrimidin-4-yl]amino]propyl]piperidin-2-one] showed a negative-log IC50 (pIC50) above 6.70. For the molecule `COc1ccccc1Nc1ncc(C(F)(F)F)c(NCCCN2CCCCC2=O)n1` [Example 30, 1-[3-[[2-(2-Methoxyanilino)-5-(trifluoromethyl)pyrimidin-4-yl]amino]propyl]piperidin-2-one], the negative logarithm of the IC50 (pIC50) was at most 6.00.

Turning to `COc1nn(CCN2CCOCC2)cc1Nc1ncc(C(F)(F)F)c(NCCCN2CCCCC2=O)n1` [Example 53, 1-[3-[[2-[[3-Methoxy-1-(2-morpholinoethyl)pyrazol-4-yl]amino]-5-(trifluoromethyl)pyrimidin-4-yl]amino]propyl]piperidin-2-one], the negative-log IC50 (pIC50) was at most 6.00. `CN1CCC(Oc2cccc(Nc3ncc(C(F)(F)F)c(NCCCN4CCCCC4=O)n3)c2)CC1` [Example 8, 1-[3-[[2-[3-[(1-Methyl-4-piperidyl)oxy]anilino]-5-(trifluoromethyl)pyrimidin-4-yl]amino]propyl]piperidin-2-one] showed a pIC50 above 6.70.

The molecule `COc1nn(C)cc1Nc1ncc(C(F)(F)F)c(NCCCN2CCCCC2=O)n1` [Example 27, 1-[3-[[2-[(3-Methoxy-1-methyl-pyrazol-4-yl)amino]-5-(trifluoromethyl)pyrimidin-4-yl]amino]propyl]piperidin-2-one] showed a pIC50 above 6.70. The molecule `O=C1CCCCN1CCCNc1nc(Nc2cc(OCCN3CCOCC3)ccc2Cl)ncc1C(F)(F)F` [Example 59, 1-[3-[[2-[2-Chloro-5-(2-morpholinoethoxy)anilino]-5-(trifluoromethyl)pyrimidin-4-yl]amino]propyl]piperidin-2-one] showed a pIC50 of 6.00 to 6.70. `O=C(CCNc1nc(Nc2ccc3c(c2)CCNC3)ncc1C(F)(F)F)N1CCOCC1` [Example 67, 1-Morpholino-3-[[2-(1,2,3,4-tetrahydroisoquinolin-6-ylamino)-5-(trifluoromethyl)pyrimidin-4-yl]amino]propan-1-one] gave a pIC50 above 6.70. The molecule `CCOc1cc2c(cc1Nc1ncc(C(F)(F)F)c(NCCCN3CCCCC3=O)n1)CNCC2` [Example 21, 1-[3-[[2-[(6-Ethoxy-1,2,3,4-tetrahydroisoquinolin-7-yl)amino]-5-(trifluoromethyl)pyrimidin-4-yl]amino]propyl]piperidin-2-one] gave a pIC50 above 6.70. The molecule `O=C1CCCCN1CCCNc1nc(Nc2cc(S(=O)(=O)N3CCOCC3)cc3c2OCC3)ncc1C(F)(F)F` [Example 51, 1-[3-[[2-[(5-Morpholinosulfonyl-2,3-dihydrobenzofuran-7-yl)amino]-5-(trifluoromethyl)pyrimidin-4-yl]amino]propyl]piperidin-2-one] showed a negative-log IC50 (pIC50) of at most 6.00. Molecule `COc1cc2c(cc1Nc1ncc(C(F)(F)F)c(NC3CCN(S(C)(=O)=O)CC3)n1)CNCC2` [Example 72, N2-(6-methoxy-1,2,3,4-tetrahydroisoquinolin-7-yl)-N4-(1-methylsulfonyl-4-piperidyl)-5-(trifluoromethyl)pyrimidine-2,4-diamine] showed a pIC50 of at most 6.00. With `FC(F)(F)c1cnc(Nc2ccc(N3CCOCC3)cc2)nc1NCCc1c[nH]cn1` [Example 91, N4-[2-(1H-imidazol-4-yl)ethyl]-N2-(4-morpholinophenyl)-5-(trifluoromethyl)pyrimidine-2,4-diamine], the pIC50 is 6.00 to 6.70.

`CN1CCc2cc(Nc3ncc(C(F)(F)F)c(NCCCN4CCCC4=O)n3)ccc2C1` [Example 76, 1-[3-[[2-[(2-Methyl-3,4-dihydro-1H-isoquinolin-6-yl)amino]-5-(trifluoromethyl)pyrimidin-4-yl]amino]propyl]pyrrolidin-2-one] had a pIC50 above 6.70.

What is called pIC50 is the IC50 on a negative log10 scale, so that one unit is a factor of ten. Higher therefore signals a low IC50.
